# Measurements reported in patent EP3727588B1, “ACTIVATOR PEPTIDES OF THE ENZYME ADAM 10 AND RELATED USES IN THE TREATMENT OF ALZHEIMER'S DISEASE” (UNIVERSITA' DEGLI STUDI DI MILANO, priority 2017, dated 2019).
# Several values for one entry are separate records, joined by “and”; a condition that tells them apart may be missing. Identical values can stand only once. Peptide text beside a SMILES is read from it.
# What was measured:
# [1] = test system: GFAP and Iba-1 positive cells; assay: neuro-inflammation: GFAP and Iba-1 positive cells in hippocampus; assay type: in vivo, mice; conditions: 5 fields, 14 days' treatment
# Experimental: (§1) C57/BL6 adult mice were treated for 14 days with daily intraperitoneal injection of saline solution or peptides at a dose of 3 nmol/g (6-10 animals per experimental group). The animals were maintained in an enclosure at 25 ± 2 °C with an alternating light/dark cycle of 12 hours and had free access to water and food in the form of pellets (standard diet).
# After the sacrifice of the treated animal, a portion of liver and a brain hemisphere were fixed in 10% formalin for 48 hours, and included in paraffin. From each block of paraffin, serial sections 5/6µm thick were obtained. The sections were then stained with haematoxylin-eosin or processed through immunohistochemistry.
# Subsequently, to evaluate the presence of neuro-inflammation, 5 different fields of the hippocampus were considered to verify any presence of GFAP and Iba-1 positive cells.
# [2] = blood count and platelet count after 14 days' treatment; assay type: in vivo, mice; parameters: key to Aggregate s: +, ++, +++ considering the presence of platelet aggregates detected in the blood smear that make the analysis difficult; +, ++, +++ considering the presence of platelet aggregates detected in the blood smear that make the analysis difficult; +, ++, +++ considering the presence of platelet aggregates detected in the blood smear that make the analysis difficult; key to Estimate Plt: A= appropriate platelet estimate
# Experimental: as §1
# The blood, collected through cardiac puncture, was analysed with a laser counter (ADVIA 120, Siemens) using specific software for the murine species. From each sample a blood smear was prepared, stained with the May Grünwald-Giemsa method, and used for the morphological analysis of the leukocytes, the red blood cells and the platelet estimate. After the automatic counting of the cells and the preparation of the smear, all the samples were centrifuged and the plasma was transferred into separate test tubes. The analysis of the plasma samples was performed through automatic spectrophotometer (ILAB-300, Instrumentation Laboratory). All the results were compared with the values provided by the company Charles River for mice of the same strain and age.
# The range values are provided by Charles River for C57BL mice aged between 56-70 days, whose blood was collected by cardiac puncture after euthanasia.
# [3] = blood-brain barrier crossing, anti-TAT immunohistochemistry on coronal brain sections; assay type: in vivo; conditions: C57BL/6 mice, intraperitoneal injection 3 nmoles/g, 24 hours
# Experimental: For the immunohistochemistry analyses, mice treated with the peptide were anaesthetized deeply and subjected to transcardial perfusion with 4% paraformaldehyde (prepared in PBS, pH 7.2-7.4), through the use of a peristaltic pump. The fixing liquid was inserted into the blood circulation through the left ventricle and after 10 minutes the brain was isolated. The sample was then post-fixed for 1 hour and 30 minutes at 4°C, then washed with PBS 1X and placed o/n in a 30% sucrose solution. The following day the sample was washed again with PBS 1X cut with the vibratome obtaining coronal sections of 50µm. Then the sections were stained through free-floating immunofluorescence technique. The fluorescence images were acquired using the Zeiss Confocal LSM510 Meta system with 63x objective at a resolution of 1024x1024 pixels. […]
# The coronal sections were incubated with a specific antibody for the identification of the MAP2 neurons, and an antibody able to recognize the TAT sequence of HIV-1 present in the CPPs. As shown by the arrows in Figure 6, the presence of a specific signal of the anti-TAT antibody can be identified, which can only be detected in the coronal sections of brain of animals treated with CPPs. […] In the brain of animals only treated with saline solution (Figure 6, panel A), such signal cannot be detected.
# [4] = test system: T1, ADAM10/AP2 complex (Rattus norvegicus); assay: co-immunoprecipitation of ADAM10 with AP2 (α-adaptin) in acute hippocampal slices; assay type: cell-based; conditions: 10 µM, 30 min
# T1 construct: endogenous in cells; host or cells: primary hippocampal neurons of rat embryos, DIV14
# Experimental: (§2) The acute hippocampal slices were obtained from rat brain. After carefully removing the meninges, the hippocampus was isolated and dissected using the McIlwain tissue chopper. The hippocampal slices were then transferred into supports containing Krebs buffer, in the presence of a constant flow of 95% O2 and 5% CO2 5% (v/v). The acute slices were kept for 45 min at ambient temperature before proceeding with treatment with the peptide.
# (§3) For the treatments of the acute hippocampal slices, all the peptides were diluted in Krebs buffer at a concentration of 10µM. The treatments were performed for 30 minutes and subsequently the sample was immediately frozen.
# (§4) For the co-immunoprecipitation experiments, aliquots of 40-100 µg of lysate were incubated at 4°C in RIA 1X buffer (NaCl 200 mM, EDTA 10 mM, Na2HPO4 10 mM, Nonidet P-40, 0.5% and 0.1% SDS) in a final volume of 150 µl with 1-2 µg of antibody. The following day the protein complex A/G (Santa Cruz Biotechnology) was added, conjugated with agarose marbles, and the incubation was continued for 2 hours. After three washes with RIA buffer the samples were loaded onto SDS-PAGE and analysed through Western Blot.
# (§5) The quantization of the Western Blot analyses was performed through an image analysis program (ImageLab -BioRad). The levels of proteins were expressed as optical density (OD) related to the different measurements and were normalized on respective tubulin levels.
# (§6) The samples were then processed, and the total homogenate was used to evaluate the interaction levels between ADAM10 and the complex AP2. The co-immunoprecipitation experiment (co-IP), performed using an anti-ADAM10 antibody, made it possible to verify that two of the three peptides (PEP2 (SEQ ID NO:2) and PEP3 (SEQ ID NO:1)) were able to interfere with the interaction between ADAM10 and α-adaptin, one of the subunits that constitutes the complex AP2 (Figure 1A).
# ADAM10/AP2 complex = molecular target: T2, ADAM10/AP2 complex (Rattus norvegicus, UniProt P62944); assay: as above; assay type: cell-based; conditions: 10 µM, 30 minutes
# T2 construct: endogenous in cells; host or cells: primary hippocampal neurons of rat embryos, DIV14
# Experimental: as §2, §3, §4, §5, §6
# [5] = individual animal, 14 days, daily intraperitoneal 3 nmol/g
# T2 sequence (P18484 whole entry): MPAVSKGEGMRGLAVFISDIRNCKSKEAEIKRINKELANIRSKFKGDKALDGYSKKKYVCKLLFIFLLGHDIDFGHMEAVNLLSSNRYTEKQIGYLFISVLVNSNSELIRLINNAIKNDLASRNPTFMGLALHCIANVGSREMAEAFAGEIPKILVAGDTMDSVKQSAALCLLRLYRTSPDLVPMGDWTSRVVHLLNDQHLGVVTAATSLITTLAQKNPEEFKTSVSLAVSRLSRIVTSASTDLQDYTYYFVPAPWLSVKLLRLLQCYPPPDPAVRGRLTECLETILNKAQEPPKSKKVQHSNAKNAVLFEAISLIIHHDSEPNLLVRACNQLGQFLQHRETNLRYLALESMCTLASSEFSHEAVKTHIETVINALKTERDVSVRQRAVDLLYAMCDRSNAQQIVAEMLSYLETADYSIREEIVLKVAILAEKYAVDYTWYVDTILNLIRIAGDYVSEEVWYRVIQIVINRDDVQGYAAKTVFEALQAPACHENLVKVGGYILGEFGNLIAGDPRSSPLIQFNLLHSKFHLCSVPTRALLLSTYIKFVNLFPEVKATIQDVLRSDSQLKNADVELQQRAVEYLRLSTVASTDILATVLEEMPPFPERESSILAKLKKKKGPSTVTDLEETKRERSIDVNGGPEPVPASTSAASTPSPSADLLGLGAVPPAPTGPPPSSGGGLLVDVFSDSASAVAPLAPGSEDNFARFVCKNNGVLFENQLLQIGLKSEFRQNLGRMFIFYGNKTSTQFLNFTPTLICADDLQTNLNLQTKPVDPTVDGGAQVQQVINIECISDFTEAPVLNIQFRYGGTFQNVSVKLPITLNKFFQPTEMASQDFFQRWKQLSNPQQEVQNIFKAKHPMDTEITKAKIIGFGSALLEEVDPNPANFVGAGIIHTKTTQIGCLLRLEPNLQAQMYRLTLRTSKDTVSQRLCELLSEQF
# T2 sequence (P62744 whole entry, further chain): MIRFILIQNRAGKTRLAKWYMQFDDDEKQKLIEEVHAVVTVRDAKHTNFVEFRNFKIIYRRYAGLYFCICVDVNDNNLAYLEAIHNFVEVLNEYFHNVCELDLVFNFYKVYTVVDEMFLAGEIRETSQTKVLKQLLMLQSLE
# T2 sequence (P84092 whole entry, further chain): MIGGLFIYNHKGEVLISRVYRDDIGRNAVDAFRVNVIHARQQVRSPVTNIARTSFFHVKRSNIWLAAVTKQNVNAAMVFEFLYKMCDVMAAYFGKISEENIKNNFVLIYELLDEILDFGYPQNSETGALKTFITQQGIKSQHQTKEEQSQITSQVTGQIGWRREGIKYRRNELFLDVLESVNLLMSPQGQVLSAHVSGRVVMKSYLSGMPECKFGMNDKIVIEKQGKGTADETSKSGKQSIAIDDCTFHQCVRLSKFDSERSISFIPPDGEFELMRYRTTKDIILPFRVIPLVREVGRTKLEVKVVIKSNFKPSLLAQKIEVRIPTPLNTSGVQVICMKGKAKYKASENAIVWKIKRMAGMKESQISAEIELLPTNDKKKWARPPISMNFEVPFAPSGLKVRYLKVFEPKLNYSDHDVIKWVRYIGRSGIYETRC
# T2 sequence (P62944 whole entry): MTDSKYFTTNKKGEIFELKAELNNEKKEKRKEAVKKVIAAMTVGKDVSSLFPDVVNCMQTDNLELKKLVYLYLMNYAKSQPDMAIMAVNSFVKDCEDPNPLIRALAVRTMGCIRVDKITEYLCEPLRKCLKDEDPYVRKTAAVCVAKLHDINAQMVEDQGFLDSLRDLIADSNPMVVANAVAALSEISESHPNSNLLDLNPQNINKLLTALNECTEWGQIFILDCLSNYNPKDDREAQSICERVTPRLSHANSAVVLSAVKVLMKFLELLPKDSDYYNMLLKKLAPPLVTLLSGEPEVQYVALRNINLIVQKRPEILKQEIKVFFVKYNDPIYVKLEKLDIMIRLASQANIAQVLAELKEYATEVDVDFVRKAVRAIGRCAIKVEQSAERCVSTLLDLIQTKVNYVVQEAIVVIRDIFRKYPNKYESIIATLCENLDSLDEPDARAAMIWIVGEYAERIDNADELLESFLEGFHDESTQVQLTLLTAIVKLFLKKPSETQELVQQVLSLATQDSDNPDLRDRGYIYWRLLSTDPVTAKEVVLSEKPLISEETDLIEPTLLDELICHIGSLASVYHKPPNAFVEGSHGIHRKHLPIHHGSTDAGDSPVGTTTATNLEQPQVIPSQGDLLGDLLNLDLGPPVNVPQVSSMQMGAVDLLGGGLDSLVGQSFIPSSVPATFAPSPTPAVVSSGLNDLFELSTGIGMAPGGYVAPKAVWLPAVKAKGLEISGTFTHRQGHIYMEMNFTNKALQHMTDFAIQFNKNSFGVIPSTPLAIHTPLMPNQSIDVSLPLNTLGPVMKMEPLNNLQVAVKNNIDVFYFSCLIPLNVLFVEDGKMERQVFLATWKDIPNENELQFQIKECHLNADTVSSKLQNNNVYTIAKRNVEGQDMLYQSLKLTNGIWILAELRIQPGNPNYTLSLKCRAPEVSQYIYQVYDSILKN
# T1 sequence (P18484 whole entry): as the sequence (P18484 whole entry) above
# T1 sequence (P62744 whole entry, further chain): as the sequence (P62744 whole entry, further chain) above
# T1 sequence (P84092 whole entry, further chain): as the sequence (P84092 whole entry, further chain) above
# T1 sequence (P62944 whole entry, further chain): as the sequence (P62944 whole entry) above
smiles,measurement,setting,value
N=C(N)NCCC[C@H](NC(=O)CNC(=O)[C@@H](N)Cc1ccc(O)cc1)C(=O)N[C@@H](CCCCN)C(=O)N[C@@H](CCCCN)C(=O)N[C@@H](CCCNC(=N)N)C(=O)N[C@@H](CCCNC(=N)N)C(=O)N[C@@H](CCC(N)=O)C(=O)N[C@@H](CCCNC(=N)N)C(=O)N[C@@H](CCCNC(=N)N)C(=O)N[C@@H](CCCNC(=N)N)C(=O)NCC(=O)NCC(=O)N[C@@H](CO)C(=O)NCC(=O)N[C@@H](CCC(N)=O)C(=O)N1CCC[C@H]1C(=O)N1CCC[C@H]1C(=O)N[C@@H](CCCNC(=N)N)C(=O)N[C@@H](CCC(N)=O)C(=O)N[C@@H](CCCNC(=N)N)C(=O)N1CCC[C@H]1C(=O)N[C@@H](CCCNC(=N)N)C(=O)NCC(=O)O [PEP3] (H-YGRKKRRQRRRGGSGQPPRQRPRG-OH),number of GFAP positive cells,[1],37.17±3.54
same,number of Iba-1 positive cells,[1],7.33±1.63
same,(Ht),[2]; group mean,46.2%
same,Hb,[2]; group mean,11.8 g/dL
same,Mean Corpuscula r Hb (MCH),[2]; group mean,13.5 pg
same,Mean Corpuscula r Hb Conc. MCHC,[2]; group mean,25.6%
same,Platelet count,[2]; group mean,999000 µL⁻¹
same,Red blood cells,[2]; group mean,8.74e+06 µL⁻¹
same,Red cell distribution width (RDW),[2]; group mean,19.5%
same,Vol. Mean Corp. Vol. (MCV),[2]; group mean,52.9 fL
same,(Ht),[2]; group median,-46.9%
same,Hb,[2]; group median,-11.9 g/dL
same,Mean Corpuscula r Hb Conc. MCHC,[2]; group median,-25.8%
same,Platelet count,[2]; group median,-1.082e+06 µL⁻¹
same,Red blood cells,[2]; group median,-8.8e+06 µL⁻¹
same,Red cell distribution width (RDW),[2]; group median,-19.7%
same,Vol. Mean Corp. Vol. (MCV),[2]; group median,-53.1 fL
same,Estimate Plt,"[2]; individual animal, blood smear, first part of cell",A
same,Aggregate s,"[2]; individual animal, blood smear, second part of cell",+++
same,(Ht),[2]; [5],41.5% and 47.4% and 48.5% and 48% and 46.3% and 45.7%
same,Hb,[2]; [5],10.9 g/dL and 11.7 g/dL and 12.5 g/dL and 11.9 g/dL (3×)
same,Mean Corpuscula r Hb (MCH),[2]; [5],13.4 Pg (2×) and 13.8 Pg and 13.3 Pg and 13.5 Pg and 13.6 Pg
same,Mean Corpuscula r Hb Conc. MCHC,[2]; [5],26.3% and 24.7% and 25.8% and 24.8% and 25.7% and 26%
same,Platelet count,[2]; [5],861000 µL⁻¹ and 711000 µL⁻¹ and 1.333e+06 µL⁻¹ and 391000 µL⁻¹ and 1.302e+06 µL⁻¹ and 1.394e+06 µL⁻¹
same,Red blood cells,[2]; [5],8.14e+06 µL⁻¹ and 8.75e+06 µL⁻¹ and 9.04e+06 µL⁻¹ and 8.94e+06 µL⁻¹ and 8.84e+06 µL⁻¹ and 8.72e+06 µL⁻¹
same,Red cell distribution width (RDW),[2]; [5],18.7% and 19.3% and 19.9% (2×) and 19.7% (2×)
same,Vol. Mean Corp. Vol. (MCV),[2]; [5],51 fL and 54.2 fL and 53.7 fL (2×) and 52.4 fL (2×)
same,capacity to cross the blood-brain barrier (BBB),[3],can cross the BBB and penetrate into the neuron cells
same,"PEP/inPEP ratio of optical density (OD), ADAM10/AP2 complex (α-adaptin)",[4],37.40 ± 21.76%
same,reduction of the interaction between ADAM10 and α-adaptin,ADAM10/AP2 complex,62.6%
